Experimental data taken from ChEMBL document CHEMBL2169859, “Modulation of tau protein fibrillization by oleocanthal” (J Nat Prod, 2012).
Activity calls are given as the source filed them.

What was measured:
[1] = organism: Homo sapiens; assay: Binding affinity to human recombinant Tau 2N4R expressed in Escherichia coli at 0.1 to 25 uM by SPR analysis
[2] = organism: Homo sapiens; assay: Binding affinity to human recombinant Tau 2N4R expressed in Escherichia coli assessed as change in protein conformation at 10 mM measured for 60 mins by H/D exchange mass spectrometric analysis
[3] = organism: Homo sapiens; assay: Inhibition of human recombinant Tau 2N4R fibrillation expressed in Escherichia coli assessed as alpha helix formation at 125 uM after 1 hr by CD spectroscopic analysis
[4] = organism: Homo sapiens; assay: Inhibition of arachidonic acid-induced human recombinant Tau 2N4R fibrillation expressed in Escherichia coli preincubated for 1 hr prior to arachidonic acid challenge measured 6 hrs post arachidonic challenge by Thioflavin-S fluorescence assay
[5] = organism: Homo sapiens; assay: Inhibition of arachidonic acid-induced human recombinant Tau 2N4R fibrillation expressed in Escherichia coli assessed as alpha helix formation at 125 uM preincubated for 1 hr prior to arachidonic acid challenge measured 28 hrs post arachidonic challenge by CD spectroscopic analysis

C/C=C(/C=O)[C@@H](CC=O)CC(=O)OCCc1ccc(O)cc1
active: Activity [1] | Activity [2] | inhibition [3] | inhibition [4] Dose-dependent effect | inhibition [5]
